# Assay results taken from US11117892B2, “Pyrrolo-pyridine derivative compound, method for preparing same, and pharmaceutical composition containing same as active ingredient for prevention or treatment of protein kinase-related diseases” (DAEGU-GYEONGBUK MEDICAL INNOVATION FOUNDATION, priority 2017, dated 2021).
# pIC50: −log10 of the molar value.
# Target: T1, DYRK1A (Homo sapiens (Human), UniProt Q13627)
# Experiment: DYRK1A kinase inhibition, 33P-ATP filter-binding method
# Type: biochemical
# Conditions: IC50 grade; head prints μM, key nM
# Protocol: Particularly, a substrate was added to a basic reaction buffer (20 mM Hepes (pH 7.5), 10 mM MgCl2, 1 mM EGTA, 0.02% Brij35, 0.02 mg/ml BSA, 0.1 mM Na3VO4, 2 mM DTT, 1% DMSO), to which cofactors necessary for the reaction were added. Then, DYRK1A kinase was added thereto, followed by mixing well. Each compound of Examples was added thereto by using acoustic technology (Echo550; nanoliter range). The mixture was left at room temperature for 20 minutes and then ^33P-ATP (specific activity 10 mCi/ml) was added to initiate the reaction. After reacting at room temperature for 2 hours, spotting was performed on P81 exchange paper. Upon completion of the reaction, kinase activity was detected using a filter-binding method.
row,IC50 [µM],SMILES
1,> 0.1,"CNc1cc(Nc2ccc(C(=O)N3CCOCC3)cc2OC)nc2[nH]cc(C#N)c12 [Example 1, 6-((2-methoxy-4-(morpholine-4-carbonyl)phenyl)amino)-4-(methylamino)-1H-pyrrolo[2,3-b]pyridine-3-carbonitrile]"
2,< 0.01,"CCNc1cc(Nc2ccc(C(=O)N3CCOCC3)cc2OC)nc2[nH]cc(C#N)c12 [Example 2, 4-(ethylamino)-6-((2-methoxy-4-(morpholine-4-carbonyl)phenyl)amino)-1H-pyrrolo[2,3-b]pyridine-3-carbonitrile]"
3,> 0.1,"COCCNc1cc(Nc2ccc(C(=O)N3CCOCC3)cc2OC)nc2[nH]cc(C#N)c12 [Example 4, 6-((2-methoxy-4-(morpholine-4-carbonyl)phenyl)amino)-4-((2-methoxyethyl)amino)-1H-pyrrolo[2,3-b]pyridine-3-carbonitrile]"
4,< 0.01,"CCCNc1cc(Nc2ccc(C(=O)N3CCOCC3)cc2OC)nc2[nH]cc(C#N)c12 [Example 10, 6-((2-methoxy-4-(morpholine-4-carbonyl)phenyl)amino)-4-(propylamino)-1H-pyrrolo[2,3-b]pyridine-3-carbonitrile]"
5,> 0.1,"CNc1cc(Nc2ccc(C(=O)N3CCO[C@@H](C)C3)cc2OC)nc2[nH]cc(C#N)c12 [Example 23, (S)-6-((2-methoxy-4-(2-methylmorpholine-4-carbonyl)phenyl)amino)-4-(methylamino)-1H-pyrrolo[2,3-b]pyridine-3-carbonitrile]"
6,> 0.1,"CCNc1cc(Nc2ccc(C(=O)N3CCO[C@@H](C)C3)cc2OC)nc2[nH]cc(C#N)c12 [Example 27, (S)-4-(ethylamino)-6-((2-methoxy-4-(2-methylmorpholine-4-carbonyl)phenyl)amino)-1H-W pyrrolo[2,3-b]pyridine-3-carbonitrile]"
7,< 0.01,"CCNc1cc(Nc2ccc(C(=O)N3CCOCC3)cc2OC)nc2[nH]cc(C(F)(F)F)c12 [Example 56, (4-((4-(ethylamino)-3-(trifluoromethyl)-1H-pyrrolo[2,3-b]pyridin-6-yl)amino)-3-methoxyphenyl) (morpholino)methanone]"
8,< 0.01,"CNc1cc(Nc2ccc(C(=O)N3CCC(N4CCOCC4)CC3)cc2OC)nc2[nH]cc(C(F)(F)F)c12 [Example 59, (3-methoxy-4-((4-(methylamino)-3-(trifluoromethyl)-1H-pyrrolo[2,3-b]pyridin-6-yl)amino)phenyl) (4-morpholinopiperidin-1-yl)methanone]"
9,< 0.01,"CNc1cc(Nc2ccc(C(=O)N3CCC(N4CCN(C)CC4)CC3)cc2OC)nc2[nH]cc(C(F)(F)F)c12 [Example 61, (3-methoxy-4-((4-(methylamino)-3-(trifluoromethyl)-1H-pyrrolo[2,3-b]pyridin-6-yl)amino)phenyl) (4-(4-methylpiperazin-1-yl)piperidin-1-yl)methanone]"
10,< 0.01,"CNc1cc(Nc2ccc(C(=O)N3CCN(C)CC3)cc2OC)nc2[nH]cc(C(F)(F)F)c12 [Example 63, (3-methoxy-4-((4-(methylamino)-3-(trifluoromethyl)-1H-pyrrolo[2,3-b]pyridin-6-yl)amino)phenyl) (4-methylpiperazin-1-yl)methanone]"
11,< 0.01,"COCCNc1cc(Nc2ccc(C(=O)N3CCC(N4CCOCC4)CC3)cc2OC)nc2[nH]cc(C(F)(F)F)c12 [Example 65, (3-methoxy-4-((4-((2-methoxyethyl)amino)-3-(trifluoromethyl)-1H-pyrrolo[2,3-b]pyridin-6-yl)amino)phenyl) (4-morpholinopiperidin-1-yl)methanone]"
12,< 0.01,COCCNc1cc(Nc2ccc(C(=O)N3CCC(N4CCN(C)CC4)CC3)cc2OC)nc2[nH]cc(C(F)(F)F)c12 [Example 67]

row,SMILES,IC50 [µM]
1,"COCCNc1cc(Nc2cc(OC)c(OC)c(OC)c2)nc2[nH]cc(C#N)c12 [Example 5, 4-((2-methoxyethyl)amino)-6-((3,4,5-trimethoxyphenyl)amino)-1H-pyrrolo[2,3-b]pyridine-3-carbonitrile]",0.01 to 0.1
2,"CCNc1cc(Nc2cc(OC)c(OC)c(OC)c2)nc2[nH]cc(C(F)(F)F)c12 [Example 53, N^4-ethyl-3-(trifluoromethyl)-N^6-(3,4,5-trimethoxyphenyl)-1H-pyrrolo[2,3-b]pyridine-4,6-diamine]",0.01 to 0.1
3,"CNc1cc(Nc2cc(F)c(C(=O)N3CCN(C)CC3)cc2OC)nc2[nH]cc(C(F)(F)F)c12 [Example 60, (2-fluoro-5-methoxy-4-((4-(methylamino)-3-(trifluoromethyl)-1H-pyrrolo[2,3-b]pyridin-6-yl)amino)phenyl) (4-methylpiperazin-1-yl)methanone]",0.01 to 0.1

# Tested on: Drosophila over-expressing minibrain specifically in wings
# Experiment: wing vein developmental abnormality, Drosophila over-expressing minibrain specifically in wings
# Type: in vivo
# Conditions: medium supplemented with compound at 10 μM
# Text: To confirm the DYRK1A inhibitory effect of the compound according to the present invention in vivo, wings of the Drosophila model over-expressing minibrain gene specifically in wings were observed. First, in order to produce Drosophila over-expressing minibrain specifically in wings, the UAS-Minibrain transformed Drosophila was mated with the wing specific promoter MS1096-Gal4 transformed Drosophila, resulting in the production of F1 generation. Next, the effect of improving wing defects was confirmed to verify the DYRK1A inhibitory effect of the compound according to the present invention using the Drosophila DYRK1A/minibrain inhibitor discovery model. A medium supplemented with the compound at the concentration of 10 μM was prepared, in which embryos of Drosophila over-expressing minibrain specifically in wings were raised, followed by investigation of wing phenotype.
row,SMILES,inhibition of the wing vein developmental abnormality [%]
1,"CNc1cc(Nc2ccc(C(=O)N3CCOCC3)cc2OC)nc2[nH]cc(C(F)(F)F)c12 [Example 58, (3-methoxy-4-((4-(methylamino)-3-(trifluoromethyl)-1H-pyrrolo[2,3-b]pyridin-6-yl)amino)phenyl) (morpholino)methanone]",47.9
2,"CNc1cc(Nc2ccc(N3CCN(C)CC3)cc2OC)nc2[nH]cc(C(F)(F)F)c12 [Example 62, N^6-(2-methoxy-4-(4-methylpiperazin-1-yl)phenyl)-N^4-methyl-3-(trifluoromethyl)-1H-pyrrolo[2,3-b]pyridine-4,6-diamine]",47.7
3,"CNc1cc(Nc2ccc(C(=O)N3CCN(C)CC3)cc2OC)nc2[nH]cc(C(F)(F)F)c12 [Example 63, (3-methoxy-4-((4-(methylamino)-3-(trifluoromethyl)-1H-pyrrolo[2,3-b]pyridin-6-yl)amino)phenyl) (4-methylpiperazin-1-yl)methanone]",43.8

# Tested on: mouse pancreatic β-cell
# Experiment: mouse pancreatic β-cell proliferation (Ki-67/insulin staining)
# Type: cell-based
# Conditions: mouse pancreatic β-cells cultured with compound for 72 hours
# Protocol: It is known that when human β-cells are treated with harmine that inhibits DYRK1A, the proliferation of β-cells is promoted by increasing the transcription factor activity by inhibiting the phosphorylation of NFAT known as a phosphorylation substrate of DYRK1A.
# Particularly, pancreatic Langerhans islet tissues were extracted from the mouse at 8 weeks old, followed by culture in RPMI1640 medium supplemented with 10% FCS (fetal calves serum), 5.5 mM glucose and 1% penicillin-streptomycin for 24 hours.
# Next, in order to separate β-cells as single cells from the Langerhans islet, cells were washed twice with PBS, followed by centrifugation. The collected cells were left in the medium supplemented with 1 mg/ml of trypsin for 10 minutes at 37° C. The cells were shaken using a pipette every 10 seconds for 5 minutes. Trypsin reaction was terminated by adding RPMI1640 containing 10% FCS (fetal calves serum), 5.5 mM glucose and 1% penicillin-streptomycin, followed by centrifugation to collect single cells.
# Then, the single cells were loaded on the laminin-coated cover glass and stabilized for 24 hours. The cells were cultured in the medium containing the compound of the present invention for 72 hours. […] The cells double-stained with Ki-67/insulin were counted under Olympus F-1000 confocal fluorescence microscope to investigate cell proliferation.
row,SMILES,cell proliferation
1,"COc1ccc2c(c1)[nH]c1c(C)nccc12 [harmine, reference compound]",active

# Target: T1, DYRK1A
# Experiment: DYRK1A kinase binding assay using LanthaScreen Eu
# Conditions: not given
row,SMILES,pIC50
1,"COCCNc1cc(Nc2ccc(C(=O)N3CCOCC3)cc2OC)nc2[nH]cc(C(F)(F)F)c12 [Example 64, (3-methoxy-4-((4-((2-methoxyethyl)amino)-3-(trifluoromethyl)-1H-pyrrolo[2,3-b]pyridine-6yl)amino)phenyl) (morpholino)methanone]",7.00 to 8.00
2,"COCCNc1cc(Nc2ccc(C(=O)N3CCN(C)CC3)cc2OC)nc2[nH]cc(C(F)(F)F)c12 [Example 66, (3-methoxy-4-((4-((2-methoxyethyl)amino)-3-(trifluoromethyl)-1H-pyrrolo[2,3-b]pyridin-6-yl)amino)phenyl) (4-methylpiperazin-1-yl)-methanone]",7.00 to 8.00
3,CCNc1cc(Nc2ccc(C(=O)N3CCC(N4CCN(C)CC4)CC3)cc2OC)nc2[nH]cc(C(F)(F)F)c12 [Example 70],7.00 to 8.00
4,"COCCNc1cc(Nc2cc(F)c(C(=O)NC3CCN(C)CC3)cc2OC)nc2[nH]cc(C(F)(F)F)c12 [Example 73, 2-fluoro-5-methoxy-4-((4-((2-methoxyethyl)amino)-3-(trifluoromethyl)-1H-pyrrolo[2,3-b]pyridin-6-yl)amino) (1-methylpiperidin-4-yl)benzamide]",7.00 to 8.00
5,CCNc1cc(Nc2cc(F)c(C(=O)NC3CCN(C(C)C)CC3)cc2OC)nc2[nH]cc(C(F)(F)F)c12 [Example 74],7.00 to 8.00
6,COCCN(C)c1cc(Nc2ccc(C(=O)N3CCOCC3)cc2OC)nc2[nH]cc(C(F)(F)F)c12 [Example 87],7.00 to 8.00
7,COCCN(C)c1cc(Nc2ccc(C(=O)N3CCC(N4CCOCC4)CC3)cc2OC)nc2[nH]cc(C(F)(F)F)c12 [Example 88],7.00 to 8.00
8,"COc1cc(C(=O)N2CCC(N3CCOCC3)CC2)ccc1Nc1cc(NC(C)C)c2c(C(F)(F)F)c[nH]c2n1 [Example 90, (4-(4-(isopropylamino)-3-(trifluoromethyl)-1H-pyrrolo[2,3-b]pyridin-6-ylamino)-3-methoxyphenyl) (4-morpholinopiperidin-1-yl)methanone]",7.00 to 8.00
9,COc1cc(C(=O)N2CCC(N3CCOCC3)CC2)ccc1Nc1cc(N[C@@H](CO)C(C)C)c2c(C(F)(F)F)c[nH]c2n1 [Example 91],7.00 to 8.00
10,"COc1cc(C(=O)N2CCOCC2)ccc1Nc1cc(NC2CC2)c2c(C(F)(F)F)c[nH]c2n1 [Example 95, (4-((4-(cyclopropylamino)-3-(trifluoromethyl)-1H-pyrrolo[2,3-b]pyridin-6-yl)amino)-3-methoxyphenyl) (morpholino) methanone]",7.00 to 8.00
